Measured values: patent US20260347403A1, “FUNGICIDAL COMPOUND” (priority 2022, published 2026)
Numbered stars: 1 amine (or outer) side, 2 acyl side, 3 side chain; on linkers, the order of the positions; unused ones are H or OH. Bridge positions count the residues as written; N and C are the ends. Square brackets hold non-standard residues; d marks the D form. Peptide text beside a SMILES is read from it. * marks the point of attachment. X4 = NC(=O)C[C@@H](O)[C@@H](N[*:1])C(=O)[*:2]; d(aThr) = C[C@@H](O)[C@@H](N)C(=O)O; NMeF = CN[C@@H](Cc1ccccc1)C(=O)O; X3 = CC[C@@H](C)CCCCCCCCCCC(=O)*; dNMeN = CN[C@H](CC(N)=O)C(=O)O

Legend:
[1] = test system: ROS production induced by flg22; assay: Reactive Oxygen Species (ROS) burst assay with wheat leaf discs; conditions: Triticum aestivum, foliar, read-out: Fold change (peak ROS)
Botryotinia fuckeliana = assay: Liquid culture, Botryotinia fuckeliana (Botrytis cinerea), Gray Mould, 3-4 days; type: cell-based; conditions: Table 3
Description: (§1) Mycelia fragments or conidia suspensions of a fungus, prepared either freshly from liquid cultures of the fungus or from cryogenic storage, were directly mixed into nutrient broth.
(§2) A stock solution for compound of Formula I(a) and Formula I(b) was produced in DMSO (max. 10 mg/ml), which was diluted with water plus 0.025% Tween®20 to produce a 10× concentrated sample and 10 μl of this solution was pipetted into a microtiter plate (96-well format). The nutrient broth containing the fungal spores/mycelia fragments was then added to give an end concentration of the tested compound. The test plates were incubated in the dark at 24 °C and 96% rh. The inhibition of fungal growth was determined photometrically after 2-7 days, depending on the pathosystem, and percent antifungal activity relative to the untreated check was calculated.
(§3) The effect of the test compound (Formula I(a), I(b) and Lipopeptin A) was tested against the following fungi under the conditions as outlined above and specifically herein below:
Botryotinia fuckeliana (Botrytis cinerea)/Liquid Culture (Gray Mould)
Conidia of the fungus from cryogenic storage were directly mixed into nutrient broth (Vogels broth). The inhibition of growth is determined photometrically 3-4 days after application.

Glomerella lagenarium = assay: Liquid culture, Glomerella lagenarium (Colletotrichum lagenarium), Anthracnose, 3-4 days; type: cell-based; conditions: Table 3
Description: as §1, §2, §3
Glomerella lagenarium (Colletotrichum lagenarium)/Liquid Culture (Anthracnose)
Conidia of the fungus from cryogenic storage were directly mixed into nutrient broth (PDB potato dextrose broth). The inhibition of growth was measured photometrically 3-4 days after application.

Mycosphaerella arachidis = assay: Liquid culture, Mycosphaerella arachidis (Cercospora arachidicola), early leaf spot, 4-5 days; type: cell-based; conditions: Table 3
Description: as §1, §2, §3
Mycosphaerella arachidis (Cercospora arachidicola)/liquid culture (early leaf spot) Conidia of the fungus from cryogenic storage were directly mixed into nutrient broth (PDB potato dextrose broth). The inhibition of growth was determined photometrically 4-5 days after application.

Zymoseptoria tritici = assay: Liquid culture, Zymoseptoria tritici (Septoria tritici), Septoria leaf blotch, 4-5 days; type: cell-based; conditions: Table 3
Description: as §1, §2, §3
Zymoseptoria tritici (Septoria tritici)/liquid culture (Septoria leaf blotch) Conidia of the fungus from cryogenic storage were directly mixed into nutrient broth (PDB potato dextrose broth). The inhibition of growth was determined photometrically 4-5 days after application.

[2] = test system: Puccinia recondita f. sp. tritici; assay: Leaf disc/segment test on wheat, Puccinia recondita f. sp. tritici (Brown Rust), 7-9 days after application; type: in vivo; conditions: Table 5
Description: (§4) Leaf disks or leaf segments of various plant species were cut from plants grown in the greenhouse. The cut leaf disks, or segments were placed in multiwell plates (24-well format) onto water agar. The leaf disks were sprayed with a test solution before inoculation with the fungal spores. Compounds to be tested were prepared as DMSO solutions (max. 10 mg/ml) which were diluted to the appropriate concentration with water plus 0.025% Tween® 20 just before spraying. The inoculated leaf disks or segments were incubated under defined conditions (temperature, relative humidity, light, etc.) according to the respective test system. A single evaluation of disease level was carried out by visual evaluation 3-9 days days after inoculation, depending on the pathosystem as indicated below. Percent disease control relative to the untreated check leaf disks or segments was then calculated.
Puccinia recondita f. Sp. Tritici/Wheat/Leaf Disc (Brown Rust)
Wheat leaf segments cv. Kanzler were placed on agar in multiwell plates (24-well format) and sprayed with the formulated test compound diluted in water. The leaf disks were inoculated with a spore suspension of the fungus 1 day after application. The inoculated leaf segments were incubated at 19 °C and 75% rh under a light regime of 12 h light/12 h darkness in a climate cabinet and the activity of a compound was assessed as percent disease control compared to untreated when an appropriate level of disease damage appears in untreated check leaf segments (7-9 days after application).

Phaeosphaeria nodorum = assay: Leaf disc test on wheat, Phaeosphaeria nodorum (Glume Blotch), 5-7 days after application; type: in vivo, Phaeosphaeria nodorum (Septoria nodorum) on wheat; conditions: Table 5
Description: as §4
Phaeosphaeria Nodorum (Septoria nodorum)/Wheat/Leaf Disc (Glume Blotch)
Wheat leaf segments cv. Kanzler were placed on agar in a multiwell plate (24-well format) and sprayed with the formulated test compound diluted in water. The leaf disks were inoculated with a spore suspension of the fungus 2 days after application. The inoculated test leaf disks were incubated at 20 °C and 75% rh under a light regime of 12 h light/12 h darkness in a climate cabinet and the activity of a compound was assessed as percent disease control compared to untreated when an appropriate level of disease damage appears in untreated check leaf disks (5-7 days after application)

Pyrenophora teres = assay: Leaf disc preventative test on barley, Pyrenophora teres (Net Blotch), 5-7 days after application; type: in vivo; conditions: Table 5
Description: as §4
Pyrenophora teres/Barley/Leaf Disc Preventative (Net Blotch)
Barley leaf segments cv. Hasso were placed on agar in a multiwell plate (24-well format) and sprayed with the formulated test compound diluted in water. The leaf segments were inoculated with a spore suspension of the fungus 2 days after application. The inoculated leaf segments were incubated at 20 °C and 65% rh under a light regime of 12 h light/12 h darkness in a climate cabinet and the activity of a compound was assessed as disease control compared to untreated when an appropriate level of disease damage appears in untreated check leaf segments (5-7 days after application).

[3] = test system: several phytopathogenic fungi; assay: Liquid culture assays, summary over the fungi tested; type: cell-based; conditions: Tables 2 and 3; relative to the other compounds
Description: as §1, §2
The effect of the test compound (Formula I(a), I(b) and Lipopeptin A) was tested against the following fungi under the conditions as outlined above and specifically herein below: […]

several fungal species = assay: Leaf disc or leaf segment tests, summary over the fungi tested; type: in vivo; conditions: Tables 4 and 5; relative to the other compounds
Description: as §4

Q: Which fold induction at 100 ppm [1] does the source give for `O=C(O)c1cc(Cl)nc(Cl)c1` [INA, 2.6-dichloro-isonicotinic acid, reference compound] here?
A: 1.8

Q: For `CC[C@@H](C)CCCCCCCCCCC(=O)N[C@H]1C(=O)N[C@@H](CC(=O)O)C(=O)N[C@H](CO)C(=O)N[C@@H](CO)C(=O)N(C)[C@H](CC(N)=O)C(=O)N(C)[C@@H](Cc2ccccc2)C(=O)N[C@H]([C@H](O)CC(N)=O)C(=O)N[C@H](CCC(=O)O)C(=O)O[C@@H]1C` [Lipopeptin A, reference compound] (X3-[d(aThr)]D[dS]S[dNMeN][NMeF][X4][dE]; ester 1-C), which “% reduction fungal growth” value (Botryotinia fuckeliana; 0.41 ppm) is on record?
A: 0%

Q: What about the “% reduction fungal growth” value (Botryotinia fuckeliana; 1.2 ppm) of the same compound?
A: 0%

Q: And the “% reduction fungal growth” value (Botryotinia fuckeliana; 3.7 ppm)?
A: 0%

Q: And the “% reduction fungal growth” value (Botryotinia fuckeliana; 11 ppm)?
A: 0%

Q: And the “% reduction fungal growth” value (Botryotinia fuckeliana; 33 ppm)?
A: 0%

Q: And the “% reduction fungal growth” value (Botryotinia fuckeliana; 100 ppm)?
A: 0%

Q: And the “% reduction fungal growth” value (Glomerella lagenarium; 0.41 ppm)?
A: 0%

Q: What about the “% reduction fungal growth” value (Glomerella lagenarium; 1.2 ppm) of the same compound?
A: 0%

Q: What about the “% reduction fungal growth” value (Glomerella lagenarium; 3.7 ppm) of the same compound?
A: 0%

Q: What about the “% reduction fungal growth” value (Glomerella lagenarium; 11 ppm) of the same compound?
A: 0%

Q: What about the “% reduction fungal growth” value (Glomerella lagenarium; 33 ppm) of the same compound?
A: 0%

Q: What about the “% reduction fungal growth” value (Glomerella lagenarium; 100 ppm) of the same compound?
A: 0%

Q: What about the “% reduction fungal growth” value (Mycosphaerella arachidis; 0.41 ppm) of the same compound?
A: 0%

Q: And the “% reduction fungal growth” value (Mycosphaerella arachidis; 1.2 ppm)?
A: 0%

Q: What about the “% reduction fungal growth” value (Mycosphaerella arachidis; 3.7 ppm) of the same compound?
A: 0%

Q: And the “% reduction fungal growth” value (Mycosphaerella arachidis; 11 ppm)?
A: 0%

Q: What about the “% reduction fungal growth” value (Mycosphaerella arachidis; 33 ppm) of the same compound?
A: 0%

Q: What about the “% reduction fungal growth” value (Mycosphaerella arachidis; 100 ppm) of the same compound?
A: 0%

Q: What about the “% reduction fungal growth” value (Zymoseptoria tritici; 0.41 ppm) of the same compound?
A: 0%

Q: And the “% reduction fungal growth” value (Zymoseptoria tritici; 1.2 ppm)?
A: 0%

Q: And the “% reduction fungal growth” value (Zymoseptoria tritici; 3.7 ppm)?
A: 0%

Q: And the “% reduction fungal growth” value (Zymoseptoria tritici; 11 ppm)?
A: 0%

Q: What about the “% reduction fungal growth” value (Zymoseptoria tritici; 33 ppm) of the same compound?
A: 0%

Q: And the “% reduction fungal growth” value (Zymoseptoria tritici; 100 ppm)?
A: 70%

Q: And the “% reduction of fungal growth” value ([2]; 0.82 ppm)?
A: 0%

Q: And the “% reduction of fungal growth” value ([2]; 2.5 ppm)?
A: 0%

Q: What about the “% reduction of fungal growth” value ([2]; 7.4 ppm) of the same compound?
A: 0%

Q: What about the “% reduction of fungal growth” value ([2]; 22 ppm) of the same compound?
A: 0%

Q: And the “% reduction of fungal growth” value ([2]; 67 ppm)?
A: 0%

Q: And the “% reduction of fungal growth” value ([2]; 200 ppm)?
A: 35%

Q: And the “% reduction of fungal growth” value (Phaeosphaeria nodorum; 0.82 ppm)?
A: 0%

Q: And the “% reduction of fungal growth” value (Phaeosphaeria nodorum; 2.5 ppm)?
A: 0%

Q: What about the “% reduction of fungal growth” value (Phaeosphaeria nodorum; 7.4 ppm) of the same compound?
A: 0%

Q: What about the “% reduction of fungal growth” value (Phaeosphaeria nodorum; 22 ppm) of the same compound?
A: 0%

Q: And the “% reduction of fungal growth” value (Phaeosphaeria nodorum; 67 ppm)?
A: 0%

Q: And the “% reduction of fungal growth” value (Phaeosphaeria nodorum; 200 ppm)?
A: 0%

Q: And the “% reduction of fungal growth” value (Pyrenophora teres; 0.82 ppm)?
A: 0%

Q: What about the “% reduction of fungal growth” value (Pyrenophora teres; 2.5 ppm) of the same compound?
A: 0%

Q: And the “% reduction of fungal growth” value (Pyrenophora teres; 7.4 ppm)?
A: 0%

Q: And the “% reduction of fungal growth” value (Pyrenophora teres; 22 ppm)?
A: 0%

Q: What about the “% reduction of fungal growth” value (Pyrenophora teres; 67 ppm) of the same compound?
A: 0%

Q: What about the “% reduction of fungal growth” value (Pyrenophora teres; 200 ppm) of the same compound?
A: 0%

Q: And the “activity in liquid culture in words” value [3]?
A: less active

Q: And the “activity on leaf discs in words” value (several fungal species)?
A: less active
